This passage reports melting point results from patent publication US20080319078A1, “Triphenylethylene Compounds Useful as Selective Estrogen Receptor Modulators” (priority 2005, published 2008).

For the compound `CCC(=C(c1ccc(O)cc1)c1ccc(O)cc1)c1ccc(OCC(=O)O)c(OC)c1` [Example 4, {[4-[1-Ethyl-2,2-bis(4-hydroxyphenyl)ethenyl]-2-(methyloxy)phenyl]oxy}acetic acid], the melting point was 253 to 254 °C.
